From paper PMC9599717, “The Multicellular Effects of VDAC1 N-Terminal-Derived Peptide” (Biomolecules, 2022) come the findings set out here.

As a reminder, the Kd is the constant that tells how readily two partners part at equilibrium.

Test [1] has as its system MEC-1 (human B-cell chronic lymphocytic leukemia). Kind of test: Cell death by PI staining and flow cytometry (FACS), MEC-1. Format: cell-based. To be noted: MEC-1 cells, 1.5 h. As to the method:
MEC-1 cells were incubated in a serum-free medium with various concentrations of VDAC1-based peptides for 1.5 h at room temperature (RT), collected by centrifugation, washed with phosphate-buffered saline (PBS), and analyzed for cell death. Adherent cancer cells were seeded in culture plates and allowed to adhere overnight in a sterile cell culture incubation chamber maintained at 37 °C and 5% CO2. The next day, media was removed from the plates, and cells were treated with various concentrations of VDAC1-based peptides for the indicated time in serum-free Dulbecco’s Modified Eagle Medium (DMEM) with and without DMSO (final 0.15%) as a control for 6 h at 37 °C and 5% CO2. Cells were trypsinized, centrifuged (1500× g, 5 min), and washed with PBS.
Cell death was analyzed by the propidium iodide (PI) staining, followed by flow cytometry with the iCyt sy3200 Benchtop Cell Sorter/Analyzer and analysis with EC800 v 1.3.7 software (Sony Biotechnology Inc., San Jose, CA, USA). Apoptosis was analyzed by PI and annexin V-FITC staining, which was carried out according to the manufacturer’s instructions with minor modifications. […] Next, cells were washed and PI (6.25 μg/mL), was added immediately before flow cytometry At least 10,000 events were collected, recorded on a dot plot, and analyzed by flow cytometry. […]

The target of another test is VDAC1. Kind of test: Microscale thermophoresis (MST) binding to fluorescently labeled purified VDAC1. To be noted: fluorescently labeled purified VDAC1 (138 nM); actin 10–500 nM, tubulin 20–2000 nM; 10 mM Tricine pH 7.4, 100 mM NaCl; read-out: Kd of interaction with VDAC1 (MST). As to the method:
Purified VDAC1 was fluorescently labeled using the NanoTemper Protein-Labeling Blue Kit. Fluorescently labeled VDAC1 was incubated with different concentrations of actin, tubulin, or peptides in 10 mM Tricine buffer (pH 7.4) containing 100 mM NaCl. After a 20-min incubation, 8–10 μL aliquots were loaded into microscale thermophoresis (MST) grade glass capillaries (NanoTemper Technologies, Munich, Germany), and thermophoresis was measured with the NanoTemper Monolith-NT115 system (20/40% light-emitting diode, 40% infrared laser power).
Figure 5 D-Δ(1-18)N-Ter-Antp altered actin filament organization (A,B) U-87MG cells were cultured and incubated for 24 h with D-Δ(1-18)N-Ter-Antp (10 µM). Cells were stained for actin using Phalloidin-488 and visualized by confocal microscopy (A) and quantified for Phalloidin-488 staining intensity (B). The results were from triplicates of different biological repeats and are presented as the means ± SEM. * p ≤ 0.05; ** p ≤ 0.01. (C) Maximum intensity projection of super-resolution (SIM) microscopy image. […] (D) Actin interaction with VDAC1 analyzed using the MST method. […] (E) In vitro G-actin polymerization was monitored, as described in the Method section. […]
Figure 6 D-Δ(1-18)N-Ter-Antp altered tubulin filament organization. […] Quantification of tubulin staining intensity (B). […] (D) Tubulin (20–2000 nM) interaction with VDAC1 analyzed using the MST method.
On the technique in general: MST reads how a fluorescent partner responds to local heating, with and without ligand.

Regarding “11-GKSARDVFTKGYGFGL-26- RRMKWKK [Δ(1-10)N-Ter-min-Antp, VDAC1 N-terminal residues 11-26 fused to minimal Antp]”, the “Maximal cell death (at the concentration for maximal cell death)” value in test [1] was determined as 20%.
For the substance actin, the Kd at VDAC1 was determined as 30 nM.
